pEC50, pIC50: −log10 of the molar value. Like-named read-outs stand apart in the source and are kept apart here.
Tests used:
HEK/ABCG2 = test system: T1, HEK/ABCG2; assay: cells; design: species or system HEK293 and transfected HEK293; MTT cytotoxicity, absorbance 570 nm, 72 h; conditions: Homo sapiens, HEK293, 72 h; drug alone; read-out: IC50 HEK/ABCG2 (mitoxantrone)
T1 construct: HEK293 transfected with ABCG2 (wild type)
Protocol: (§1) The MTT colorimetric assay was used to detect the sensitivity of the cells against anticancer drugs. Cells (5 × 10^3/well) were seeded evenly into (160 μl/well) 96-well plates and cultured overnight. For the reversal experiments, ORA, OSA, and parallel control modulators (20 μl/well) were added 1 h prior. Different concentrations of the chemotherapeutic drugs (20 μl/well) were then added into the designated wells. After 72 h of incubation, 20 μl of MTT solution (4 mg/ml) was added to each well, and the plate was further incubated for 4 h. Subsequently, the medium was discarded, and 100 μl of dimethylsulfoxide (DMSO) was added into each well to dissolve the formazan crystals. The absorbance was determined at 570 nm by the OPSYS microplate reader (DYNEX Technology, Inc., Chantilly, VA). The IC50 value was calculated from the survival curves using the modified Bliss method. Verapamil was used at a nontoxic concentration of 3 μM as a positive control for ABCB1 overexpressing cell lines. FTC at 3 μM and PAK-104P at 10 μM were used as positive control for ABCG2 and ABCC1 overexpressing cell lines, respectively.

HEK293 = assay: cells; design: species or system HEK293 and transfected HEK293; MTT cytotoxicity, absorbance 570 nm, 72 h; conditions: Homo sapiens, HEK293, 72 h, drug alone
Protocol: as §1

ABCB1 [1] = biological target: T2, ABCB1 (Homo sapiens, UniProt P08183); assay: biochemical; design: full length ABCB1 (HEK/ABCB1); crude membranes of High-five cells expressing ABCB1
T2 sequence (P08183 whole entry): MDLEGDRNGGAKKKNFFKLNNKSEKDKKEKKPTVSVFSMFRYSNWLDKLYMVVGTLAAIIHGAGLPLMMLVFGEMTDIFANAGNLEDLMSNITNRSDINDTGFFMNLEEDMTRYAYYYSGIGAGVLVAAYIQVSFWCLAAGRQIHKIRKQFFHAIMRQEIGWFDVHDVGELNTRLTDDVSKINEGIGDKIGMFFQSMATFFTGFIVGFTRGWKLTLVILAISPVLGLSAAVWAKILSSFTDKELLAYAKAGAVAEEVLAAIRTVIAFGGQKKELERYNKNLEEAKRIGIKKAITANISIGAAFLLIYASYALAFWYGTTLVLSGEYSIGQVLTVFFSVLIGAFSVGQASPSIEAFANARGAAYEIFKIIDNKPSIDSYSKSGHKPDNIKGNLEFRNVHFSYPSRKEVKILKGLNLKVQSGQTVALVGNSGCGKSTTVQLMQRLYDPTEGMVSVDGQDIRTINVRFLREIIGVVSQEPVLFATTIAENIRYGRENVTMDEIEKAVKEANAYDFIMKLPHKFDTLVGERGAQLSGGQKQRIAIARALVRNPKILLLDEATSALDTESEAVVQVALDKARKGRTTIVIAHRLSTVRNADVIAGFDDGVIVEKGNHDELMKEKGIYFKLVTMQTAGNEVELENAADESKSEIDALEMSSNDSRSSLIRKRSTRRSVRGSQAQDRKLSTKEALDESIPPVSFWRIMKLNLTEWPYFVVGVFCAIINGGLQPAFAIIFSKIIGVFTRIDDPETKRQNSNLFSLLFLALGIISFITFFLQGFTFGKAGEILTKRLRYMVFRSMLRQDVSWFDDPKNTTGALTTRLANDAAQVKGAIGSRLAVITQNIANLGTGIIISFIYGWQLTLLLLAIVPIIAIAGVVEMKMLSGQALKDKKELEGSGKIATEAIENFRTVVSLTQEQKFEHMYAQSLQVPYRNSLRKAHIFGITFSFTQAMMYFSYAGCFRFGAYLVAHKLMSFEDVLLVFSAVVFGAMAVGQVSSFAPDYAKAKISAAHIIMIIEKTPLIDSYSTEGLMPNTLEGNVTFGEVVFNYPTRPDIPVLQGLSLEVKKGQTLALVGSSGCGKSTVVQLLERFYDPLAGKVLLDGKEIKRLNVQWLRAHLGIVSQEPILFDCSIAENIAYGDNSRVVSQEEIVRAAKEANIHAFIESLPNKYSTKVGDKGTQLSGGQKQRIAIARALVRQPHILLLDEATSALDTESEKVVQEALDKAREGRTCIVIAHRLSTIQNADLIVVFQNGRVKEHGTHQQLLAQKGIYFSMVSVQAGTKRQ

ABCB1 [2] = biological target: T2, ABCB1; assay: cell-based; design: crude membranes of High-five cells expressing ABCB1; conditions: read-out: vanadate-sensitive ATPase stimulation in crude membranes (weak: maximal 1.78-fol)
ABCB1 [3] = biological target: T2, ABCB1
HEK/ABCB1 = test system: T3, HEK/ABCB1; assay: cells; design: species or system HEK293 and transfected HEK293; MTT cytotoxicity, absorbance 570 nm, 72 h; conditions: Homo sapiens, HEK293, 72 h; drug alone; read-out: IC50 HEK/ABCB1 (paclitaxel)
T3 construct: HEK293 transfected with ABCB1
Protocol: as §1

O=C1c2c(O)ccc(O)c2C(=O)c2c(NCCNCCO)ccc(NCCNCCO)c21 [Mitoxantrone]
pIC50 (HEK/ABCG2): 6.04 | pIC50 (HEK293; read-out: IC50 HEK293 (mitoxantrone)): 7.40

CC(C)(O)[C@H]1CC[C@@](C)([C@H]2CC[C@]3(C)[C@@H]2[C@H](O)C[C@@H]2[C@@]4(C)CC[C@H](N)C(C)(C)[C@@H]4CC[C@]23C)O1 [ORA, (20S, 24R/S)-epoxy-12β, 25-dihydroxy-dommarane-3β-amine]
pEC50 (ABCB1 [1]): 5.68

CC(C)(O)[C@@H]1CC[C@@](C)([C@H]2CC[C@]3(C)[C@@H]2[C@H](O)C[C@@H]2[C@@]4(C)CC[C@H](N)C(C)(C)[C@@H]4CC[C@]23C)O1 [OSA, (20S, 24R/S)-epoxy-12β, 25-dihydroxy-dommarane-3β-amine]
maximal fold induction (ABCB1 [2]): 1.78

CC(=O)O[C@H]1C(=O)[C@@]2(C)[C@H]([C@H](OC(=O)c3ccccc3)[C@]3(O)C[C@H](OC(=O)[C@H](O)[C@@H](NC(=O)c4ccccc4)c4ccccc4)C(C)=C1C3(C)C)[C@]1(OC(C)=O)CO[C@@H]1C[C@@H]2O [paclitaxel]
radiolabelled efflux and accumulation in ABCB1-overexpressing versus parental ce (ABCB1 [3]): decreased much faster over time than those in the parental cells, suggesting an active process of drug efflux mediated by ABCB1 | pIC50 (HEK/ABCB1): 5.09 | pIC50 (HEK293; read-out: IC50 HEK293 (paclitaxel)): 6.74

— paper PMC4695185, “Semi-synthetic ocotillol analogues as selective ABCB1-mediated drug resistance reversal agents” (Oncotarget, 2015)
